Data reported in article PMC11509018, “Evaluation of the Role of Tanshinone I in an In Vitro System of Charcot-Marie-Tooth Disease Type 2N” (International Journal of Molecular Sciences, 2024).

Target: T1, AlaRS^R329H (Homo sapiens, UniProt P49588, R329H)
T1 construct: made in house; host or cells: E. coli BL21 (DE3), pET-21a
T1 sequence (P49588 1-968 R329H): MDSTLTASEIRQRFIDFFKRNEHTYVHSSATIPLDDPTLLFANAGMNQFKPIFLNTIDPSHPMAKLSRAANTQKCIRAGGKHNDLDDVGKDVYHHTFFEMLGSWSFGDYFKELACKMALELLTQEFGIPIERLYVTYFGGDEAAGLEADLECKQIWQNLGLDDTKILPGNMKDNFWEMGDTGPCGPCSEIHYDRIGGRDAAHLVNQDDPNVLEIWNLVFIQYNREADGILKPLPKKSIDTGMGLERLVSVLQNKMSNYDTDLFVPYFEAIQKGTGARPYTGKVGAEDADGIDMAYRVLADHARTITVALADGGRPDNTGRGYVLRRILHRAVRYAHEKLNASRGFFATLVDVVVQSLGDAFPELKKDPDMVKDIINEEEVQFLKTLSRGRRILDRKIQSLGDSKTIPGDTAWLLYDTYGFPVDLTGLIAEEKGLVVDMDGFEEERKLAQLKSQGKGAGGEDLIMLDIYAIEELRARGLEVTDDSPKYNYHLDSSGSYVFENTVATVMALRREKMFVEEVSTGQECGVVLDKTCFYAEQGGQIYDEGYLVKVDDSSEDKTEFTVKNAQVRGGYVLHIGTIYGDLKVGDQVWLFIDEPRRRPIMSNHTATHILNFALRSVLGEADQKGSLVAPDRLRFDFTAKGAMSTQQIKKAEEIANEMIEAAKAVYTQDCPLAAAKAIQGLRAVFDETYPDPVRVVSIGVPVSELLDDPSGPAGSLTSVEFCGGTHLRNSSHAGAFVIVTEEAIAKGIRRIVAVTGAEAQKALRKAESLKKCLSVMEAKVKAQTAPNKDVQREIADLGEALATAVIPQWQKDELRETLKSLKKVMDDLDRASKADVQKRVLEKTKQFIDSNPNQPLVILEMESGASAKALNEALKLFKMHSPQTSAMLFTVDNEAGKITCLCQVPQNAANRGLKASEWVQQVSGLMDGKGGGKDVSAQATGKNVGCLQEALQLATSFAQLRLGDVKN
Assay: ATP consumption assay (enzyme inhibition)
Assay type: biochemical
Details: 1 μM AlaRS^R329H at 20 μM compounds; vs DMSO control
Method: We further investigated the effects of the four small molecules on the enzymatic activity of the AlaRS^R329H protein using an ATP consumption assay. All four compounds affected enzymatic activity to varying degrees. […] The ATP consumption assay was used to evaluate the enzymatic inhibitory activity of the compounds. A 30 μL reaction mixture, containing 1 μM AlaRS mutants, 25 μM ATP, 50 μM L-alanine, 30 mM HEPES (pH 7.5), 150 mM NaCl, 30 mM KCl, 40 mM MgCl2, 0.1% BSA, and varying concentrations of Tanshinone I, was incubated at room temperature for 15 min. After incubation, 10 μL of the mixture was transferred to a 384-well microplate, and AlaRS mutant activity was measured by adding 10 μL of the ATP Assay Kit (#S0026, Beyotime, Shanghai, China). Luminescence was recorded using a Synergy HTX multimode microplate reader (BioTek Inc., Winooski, VT, USA). The inhibitory rate was calculated from three independent assays to ensure the accurate assessment of Tanshinone I’s inhibitory activity. The experiment was repeated three times.

## Cc1coc2c1C(=O)C(=O)c1c-2ccc2c(C)cccc12 [Tanshinone I]
  Relative Activity (relative enzyme activity of the first step): 26.2%
